Experimental data reported in ChEMBL document CHEMBL1201862, “PubChem BioAssay data set” (2004).
Activity calls are given as the source filed them. Rule as the data show it, for most assays here: actives have a measured EC50 and inactives only a lower limit.

How the values were obtained:
[1] = molecular target: T1, Heat shock factor protein 1 (Mus musculus, UniProt P38532); experiment: enhancement of HSF1-driven luciferase signal – cell-based, NIH3T3, luminescence, dose retest, confirmation (AID 435004); type: functional;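 also: stress induced by proteasome inhibitor MG132 added 30 min after compound; luciferase reporter driven by HSF1 response element in NIH3T3 cells; actives raise luminescence as potentiators of the MG132 stress response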
T1 sequence (P38532 whole entry): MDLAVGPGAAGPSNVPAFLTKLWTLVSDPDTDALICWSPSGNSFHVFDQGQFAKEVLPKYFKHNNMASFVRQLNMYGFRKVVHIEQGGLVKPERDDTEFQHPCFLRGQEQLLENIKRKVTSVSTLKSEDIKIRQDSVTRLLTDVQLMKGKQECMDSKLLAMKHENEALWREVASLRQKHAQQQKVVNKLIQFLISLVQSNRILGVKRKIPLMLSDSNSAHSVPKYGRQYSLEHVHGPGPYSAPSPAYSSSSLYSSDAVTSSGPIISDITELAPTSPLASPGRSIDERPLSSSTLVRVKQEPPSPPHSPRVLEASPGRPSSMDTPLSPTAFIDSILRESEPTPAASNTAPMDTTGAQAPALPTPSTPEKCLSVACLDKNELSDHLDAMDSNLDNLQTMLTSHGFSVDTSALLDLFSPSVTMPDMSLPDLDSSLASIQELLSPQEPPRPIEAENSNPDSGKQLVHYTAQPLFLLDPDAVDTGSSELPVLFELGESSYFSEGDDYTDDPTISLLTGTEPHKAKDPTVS

INS1 = experiment: INS-1E survival protection against cytokine death – cell-based, luminescence, retest, dose response (AID 449756); type: functional; details: Rattus norvegicus;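 also: cell death triggered by IL-1 beta plus TNF-alpha plus IFN-gamma mixture; protective hits raise ATP signal compared with cytokine alone wells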
[2] = Luminescence Cell-Based Dose Confirmation HTS to Identify Activators of 5'UTR Stem-Loop Driven Alpha-Synuclein mRNA Translation in H4 Neuroglioblastoma Cells. [Related pubchem assays: 1829 (Project Summary), 1814 (Primary HTS)]; type: functional
[3] = Luminescence Cell-Based Dose Response HTS to Identify Activators of Luciferase Translation or Activity in H4 […] Cells. [Related pubchem assays: 1829 (Project Summary), 1814 (Primary HTS)]; type: functional
H4 = experiment: Luminescence Cell-Based Dose Response HTS to Identify Activators of 5'UTR Stem-Loop Driven Prion Protein mRNA Translation in H4 Neuroglioblastoma Cells. [Related pubchem assays: 1829 (Project Summary), 1814 (Primary HTS)]; type: functional; details: Homo sapiens
[4] = Luminescence Cell-Based Dose Retest to Confirm Inhibitors of Cancer Stem Cells. [Related pubchem assays (depositor defined):AID2717, AID2721]; type: functional; details: Homo sapiens
Streptokinase A = molecular target: T2, Streptokinase A (Streptococcus pyogenes serotype M1, UniProt P10520); experiment: viability-normalized secreted streptokinase activity reduction – plasminogen activation absorbance, OD405, dose response (AID 1914); type: functional, Streptococcus pyogenes M1 GAS;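 also: secreted streptokinase activity via plasminogen activation per viability signal from cell pellet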
T2 sequence (P10520 whole entry): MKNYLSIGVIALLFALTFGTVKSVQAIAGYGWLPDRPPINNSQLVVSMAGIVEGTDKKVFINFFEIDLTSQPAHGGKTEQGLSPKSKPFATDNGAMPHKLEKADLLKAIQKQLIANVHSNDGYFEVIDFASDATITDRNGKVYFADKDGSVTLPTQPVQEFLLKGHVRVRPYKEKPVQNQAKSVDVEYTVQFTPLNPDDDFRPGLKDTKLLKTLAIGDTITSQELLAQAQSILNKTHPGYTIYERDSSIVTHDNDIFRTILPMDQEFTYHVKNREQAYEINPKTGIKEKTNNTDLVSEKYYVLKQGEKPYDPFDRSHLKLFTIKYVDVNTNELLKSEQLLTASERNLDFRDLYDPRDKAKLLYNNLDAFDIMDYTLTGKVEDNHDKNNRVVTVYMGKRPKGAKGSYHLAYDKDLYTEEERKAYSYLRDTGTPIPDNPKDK

Streptococcus = experiment: GAS UMAA2166 growth inhibition – luminescence, BacTiterGlo, counter-screen for streptokinase expression inhibitor project, dose response (AID 1915); type: functional, organism-based;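 also: potency for reduction of bacterial viability or growth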
[5] = test system: Streptococcus sp. 'group A'; experiment: Streptococcus pyogenes SK(-)GAS viability under kanamycin – luminescence, BacTiterGlo, confirmation, counter-screen for streptokinase expression inhibitor project, dose response (AID 1900); type: functional, organism-based
[6] = molecular target: T3, Zinc finger protein mex-5 (Caenorhabditis elegans, UniProt Q9XUB2); experiment: potency of MEX-5 RNA-binding blockers – biochemical, C. elegans, fluorescence polarization, dose response (AID 1960)
T3 sequence (Q9XUB2 whole entry): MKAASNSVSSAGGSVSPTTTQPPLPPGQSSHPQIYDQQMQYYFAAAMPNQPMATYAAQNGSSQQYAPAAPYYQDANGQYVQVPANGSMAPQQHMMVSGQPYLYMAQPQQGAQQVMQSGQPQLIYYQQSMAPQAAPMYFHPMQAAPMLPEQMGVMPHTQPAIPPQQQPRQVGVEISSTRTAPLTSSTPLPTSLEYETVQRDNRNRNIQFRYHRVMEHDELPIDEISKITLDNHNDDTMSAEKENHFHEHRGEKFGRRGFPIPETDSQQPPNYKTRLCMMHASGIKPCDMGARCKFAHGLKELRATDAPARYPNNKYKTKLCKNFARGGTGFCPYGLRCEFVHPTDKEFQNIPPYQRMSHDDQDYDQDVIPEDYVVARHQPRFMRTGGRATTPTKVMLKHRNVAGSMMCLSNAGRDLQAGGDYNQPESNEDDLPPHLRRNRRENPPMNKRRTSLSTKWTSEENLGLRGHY

[7] = molecular target: T4, RNA-binding protein pos-1 (Caenorhabditis elegans, UniProt G5EF15); experiment: disruptors of C. elegans POS-1 RNA interaction – biochemical, fluorescence polarization, dose response (AID 1964);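 also: purified POS-1 fused to maltose binding protein made in E. coli; potency of compounds blocking POS-1 binding to fluorescent RNA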
T4 sequence (G5EF15 whole entry): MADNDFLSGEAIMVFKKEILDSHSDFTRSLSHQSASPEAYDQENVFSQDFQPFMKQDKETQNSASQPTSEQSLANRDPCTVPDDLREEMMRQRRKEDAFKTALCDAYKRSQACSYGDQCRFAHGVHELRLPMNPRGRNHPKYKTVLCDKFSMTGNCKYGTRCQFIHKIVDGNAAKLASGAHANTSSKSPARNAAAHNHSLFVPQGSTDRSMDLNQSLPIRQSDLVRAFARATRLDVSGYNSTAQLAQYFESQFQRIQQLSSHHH

Cc1ccc(-c2csc(NC(=O)c3cccc([N+](=O)[O-])c3)n2)cc1
EC50 [1]: > 260 µM (inactive)

CN1/C(=C\C(=S)NC(=O)c2ccc([N+](=O)[O-])cc2)C(C)(C)c2ccccc21
AC50 (INS1): 22.2 µM (active)

O=C(CCS(=O)(=O)c1cccs1)NC1CCCCCC1
EC50 [2]: 13.5 µM (active) | EC50 [3]: 29.1 µM (active) | EC50 (H4): 16 µM (active)

CC1=NN(C(N)=S)C(=O)C1N=Nc1ccc(Cl)cc1Cl (configuration not stated)
EC50 [2]: 1.09 µM (active) | EC50 [3]: > 120 µM (not active) | EC50 (H4): > 120 µM (not active)

CC1(C)CC(=O)/C(=C\c2cccc([N+](=O)[O-])c2)C(C)(C)N1
EC50 [1]: 18.6 µM (active)

CCOC(=O)Cc1nnc(Nc2cccc(C)c2)c2ccccc12
EC50 [1]: > 260 µM (inactive)

CC1(C)CC(=O)C2=C(C1)c1c(ccc3ccccc13)NC2c1ccco1 (configuration not stated)
EC50 [2]: 15.7 µM (active) | EC50 [3]: 27.4 µM (active) | EC50 (H4): > 120 µM (not active)

c1ccc(-c2nc(CSc3n[nH]c(-c4cccs4)n3)cs2)cc1
EC50 [1]: > 260 µM (inactive)

COc1cc(-c2nnc(CSc3nnc(Nc4ccc(C(C)C)cc4)s3)o2)cc(OC)c1OC
EC50 [1]: 31.8 µM (active)

COc1ccc(C)cc1Nc1n[n+](-c2ccccc2)c(-c2c(OC)ccc3ccccc23)s1
AC50 [4]: 4.84 µM (active) | AC50 (INS1): 5.74 µM (active)

Cc1ccc(OCc2ccc(C#N)cc2)c(C(=O)c2cc(C#N)c(=O)n(C3CC3)c2)c1
EC50 [1]: > 260 µM (inactive)

CCCCn1c(N)c(N(CC(C)C)C(=O)C2CCN(S(=O)(=O)c3ccc(C)c(C)c3)CC2)c(=O)[nH]c1=O
EC50 [1]: > 260 µM (inactive)

Cc1ccc(CSc2nc3sc(C)c(C)c3c(=O)n2Cc2ccco2)cc1
EC50 (Streptokinase A): 99.5 µM (active) | AC50 [4]: 23.3 µM (active) | EC50 (Streptococcus): > 150 µM (not active) | EC50 [5]: > 150 µM (not active)

Cc1ccc(N=C2NC(=O)CS2)cc1
EC50 [1]: > 260 µM (inactive)

O=C(C[n+]1cccc(C(=O)Nc2ccccc2)c1)c1ccc([N+](=O)[O-])cc1
EC50 [1]: 64.6 µM (active)

CCOc1cc(/C=C2\CCCc3c2nc2ccccc2c3C(=O)O)ccc1OC
EC50 [1]: > 260 µM (inactive)

Oc1ccc(C2=CSC3=NCCN23)cc1O
EC50 [6]: 18.6 µM (active) | EC50 [7]: 70.6 µM (active)

Cc1ccc(Sc2cc(C)nc(-c3ccccn3)n2)cc1
EC50 (Streptokinase A): > 150 µM (not active) | EC50 (Streptococcus): 49.4 µM (active) | EC50 [5]: 21.1 µM (active) | AC50 (INS1): 4 µM (active)
